From paper PMC8205030, “Methoxy and bromo scans on N-(5-methoxyphenyl) methoxybenzenesulphonamides reveal potent cytotoxic compounds, especially against the human breast adenocarcinoma MCF7 cell line” (Journal of Enzyme Inhibition and Medicinal Chemistry, 2021)

What was measured:
[1] = tested on: HeLa (human cervical carcinoma) cells; assay: Cell growth assay (XTT), HeLa; type: cell-based; details: 72 h drug exposure, read-out: Antiproliferative activity IC50 HeLa
Method in brief: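 Cells (1.5 × 10^4 cells/mL for MCF7, HeLa, HEK293; 3 × 10^4 cells/mL for HT-29) attached 24 h, then treated 72 h at 37 °C, 5% CO2. Screened at 1 µM; IC50 versus untreated controls from 10^−5 to 10^−10 M by nonlinear fit. XTT/PMS absorbance at 450 nm after 4 h (MCF7, HeLa) or 6 h (HT-29, HEK293); HT-29 with 10 µM verapamil.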

[2] = tested on: HEK293 (human embryonic kidney) cells; assay: Cell growth assay (XTT), non-tumorigenic HEK293; type: cell-based
Protocol: The presence of mycoplasma was routinely checked with MycoAlert kit (Lonza-Cambrex) and only mycoplasma-free cells were used in the experiments. Tumour cell lines were kindly provided by Dr Faustino Mollinedo from Centro de Investigaciones Biológicas Margarita Salas, Madrid, Spain. To determine cell growth, cells in exponential growth phase were seeded (100 µL/well in 96-well plates) with appropriate cell concentration (1.5 × 10^4 cells/mL for MCF7, HeLa and HEK-293 and 3 × 10^4 cells/mL for HT-29) in complete DMEM or RPMI 1640 medium (see above) at 37 °C and 5% CO2 atmosphere. After 24 h incubation, to allow cells to attach to the plates, all compounds were added at 1 µM concentration (10 µL/well in 96-well plates) and the effect on the proliferation was evaluated 72 h post-treatment. Compounds showing antiproliferative effects at tested concentration were selected for IC50 calculation (50% inhibitory concentration compared to the untreated controls) from 10^−5 to 10^−10 M concentration. Nonlinear curves fitting the experimental data were carried out for each compound. […] A freshly prepared mixture solution of XTT labelling reagent with 0.02% (v/v) PMS (N-methyl-dibenzopyrazine methyl sulfate) electron coupling reagent was added to cells (50 µL/well in 96-well plates, the total volume of 160 µL/well) and were incubated during the corresponding time according to each cell line (4 h for MCF7 and HeLa and 6 h for HT-29 and HEK-293) in a humidified atmosphere (37 °C, 5% CO2). The absorbance of the formazan product generated was measured at a test wavelength of 450 nm using a multi-well plate reader (Ultra Evolution, Tecan, Männedorf, Suiza). Compounds were dissolved in DMSO and the final solvent concentrations never exceeded 0.5% (v/v). The control wells included treated cells with 0.5% (v/v) DMSO and the positive control. 10 µM verapamil was included as a control for the HT-29 cell line. Measurements were performed in triplicate, and each experiment was repeated three times.

[3] = tested on: microtubule network of MCF7 cells; assay: Immunofluorescence of microtubule network, MCF7; type: cell-based, human; details: MCF7, 175 nM, 72 h, confocal microscopy
Protocol: (§1) MCF7, HeLa, and HT-29 cells were grown on round glass coverslips coated with poly-L-lysine (12 mm diameter). To reach appropriate cell confluence, coverslips were manipulated in 6-well plates (3 coverslips/well) seeding 3 ml/well of cells in the exponential growth phase at 2 × 10^4 cells/mL. After 24 h incubation, cells were treated with compound 25 at 175 nM and incubated for 72 h. Cells were washed with PBS, fixed with 4% formaldehyde in PBS for 10 min, permeabilized with 0.5% Triton X-100 (Boehringer Mannheim, Ingelheimam Rhein, Germany) in PBS for 10 min, and blocked with 10% BSA in PBS for 30 min. Then, coverslips were incubated with anti-α-tubulin mouse monoclonal antibody (diluted 1:200 in 3% BSA/PBS) (Sigma-Aldrich Co.) and anti-SQSTM1/p62 rabbit monoclonal antibody (diluted 1:100 in 3% BSA/PBS) (Abcam) for 1 h 30 min. After PBS washing, coverslips were incubated with fluorescent secondary antibodies Alexa Fluor 488 goat anti-mouse IgG and Alexa Fluor 594 anti-rabbit (both diluted 1:400 in 1% BSA/PBS) (Molecular Probes, Invitrogen, Thermo Fischer Scientific) for 1 h in darkness. […] Cells were analysed by confocal microscopy using a LEICA SP5 microscope DMI-6000V model coupled to a LEICA LAS AF software computer.

[4] = tested on: microtubule network of HT-29 cells; assay: Immunofluorescence of microtubule network, HT-29; type: cell-based, human; details: HT-29, 175 nM, 72 h, confocal microscopy
Protocol: as §1

[5] = biological target: T1, microtubular protein isolated from calf brain (Bos taurus, UniProt P81947+Q6B856); assay: Inhibition of tubulin polymerisation (turbidity); type: biochemical
T1 construct: isolated from calf brain according to the modified Shelanski method; from tissue; host or cells: calf brain
T1 sequence (Q6B856 whole entry): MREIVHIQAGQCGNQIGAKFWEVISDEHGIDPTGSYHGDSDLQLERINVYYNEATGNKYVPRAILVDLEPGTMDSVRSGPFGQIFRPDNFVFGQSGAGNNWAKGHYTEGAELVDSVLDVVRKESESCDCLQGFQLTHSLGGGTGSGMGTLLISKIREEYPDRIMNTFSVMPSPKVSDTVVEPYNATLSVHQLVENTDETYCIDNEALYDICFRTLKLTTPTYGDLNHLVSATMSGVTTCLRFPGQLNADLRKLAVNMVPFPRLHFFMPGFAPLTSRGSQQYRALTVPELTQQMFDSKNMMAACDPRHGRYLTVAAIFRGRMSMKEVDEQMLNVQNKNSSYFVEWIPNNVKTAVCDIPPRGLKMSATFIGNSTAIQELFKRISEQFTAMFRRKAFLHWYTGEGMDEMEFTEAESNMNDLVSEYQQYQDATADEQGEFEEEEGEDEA
T1 sequence (P81947 whole entry): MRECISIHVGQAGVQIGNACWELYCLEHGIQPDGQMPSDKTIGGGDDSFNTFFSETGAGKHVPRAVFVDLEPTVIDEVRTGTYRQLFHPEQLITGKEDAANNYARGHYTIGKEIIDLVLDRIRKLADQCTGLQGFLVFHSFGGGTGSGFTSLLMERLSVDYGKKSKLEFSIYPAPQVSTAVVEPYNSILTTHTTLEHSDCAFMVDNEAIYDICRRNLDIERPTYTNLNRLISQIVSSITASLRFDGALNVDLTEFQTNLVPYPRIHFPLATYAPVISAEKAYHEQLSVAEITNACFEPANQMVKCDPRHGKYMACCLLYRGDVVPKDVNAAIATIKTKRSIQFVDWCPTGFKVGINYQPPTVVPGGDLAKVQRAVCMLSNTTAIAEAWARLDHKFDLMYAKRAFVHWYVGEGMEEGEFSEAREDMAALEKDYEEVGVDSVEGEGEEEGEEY

- IC50 [1]: 36 nM
- TPI % 10 µM ([5]; 10 µM compound, 1.5 mg/mL microtubular protein): 51%
- IC50 ([5]; in vitro tubulin polymerisation inhibition, read-out: TPI IC50): 7600 nM
SMILES: COc1ccc(S(=O)(=O)N(CC#N)c2cc(OC)c(Br)cc2OC)cc1 [Compound 25, N-(4-bromo-2,5-dimethoxyphenyl)-N-(cyanomethyl)-4-methoxybenzenesulphonamide]
- Selectivity index HEK293 vs HeLa and MCF7 tumour cells [2]: 0.5 to 2 fold
- IC50 ([2]; Homo sapiens, HEK293, non-tumorigenic cell line, 72 h, XTT, read-out: Antiproliferative activity IC50 HEK293): 45 nM
- Effect on microtubule network [3]: disrupted the microtubule network
- Effect on microtubule network [4]: disrupted the microtubule network
